# Results taken from US20120225135A1 (priority 2010, published 2012).
# Several values for one entry are separate records, joined by “and”; a condition that tells them apart may be missing. Equal values may be shown once. Read-outs that look alike come from different tables or passages of the source.
# Tests used:
# [1] = format: physicochemical; details: for Found ppm: test level 0.13 ppm ClO2, taken 0.130 ppm
# [2] = test system: Total microbio counts
# [3] = test system: Total Plate Count (microbiological surface contamination)
# [4] = test system: Streptococcus; test: Disinfection of effluents, streptococcus; format: cell-based; details: trickling filters effluents
# [5] = test system: E-Coli Phage; test: Disinfection of effluents, E. coli phage; format: cell-based; details: ClO2 dose 9.86 mg/L, 30 minutes
# [6] = test system: Rotavirus SA-11, ATCC VR-899; format: cell-based; details: pH 9
# [7] = Residual ClO2 after contact with effluents or tap water (amperometric titration); format: physicochemical; details: for Residual ClO2: trickling filters effluents
# [8] = test system: E. coli
compound,measurement,setting,value
"[O][Cl+][O-] [Chlorine Dioxide, chlorine dioxide]",Found ppm,[1]; Day 1,0.128 ppm and 0.126 ppm and 0.115 ppm and 0.127 ppm and 0.133 ppm
same,Mean,"[1]; Day 5, n 6",0.122 ppm
same,Found ppm,[1]; Day 5,0.125 ppm and 0.122 ppm and 0.117 ppm and 0.123 ppm and 0.118 ppm
same,Mean,"[1]; Day 15, n 5",0.129 ppm
same,Found ppm,[1]; Day 15,0.133 ppm and 0.129 ppm and 0.127 ppm and 0.125 ppm and 0.131 ppm and 0.157* ppm
same,Mean,"[1]; Day 30, n 5",0.128 ppm
same,Found ppm,[1]; Day 30,0.126 ppm and 0.130 ppm and 0.128 ppm and 0.125 ppm and 0.161* ppm
same,Mean,"[1]; Day 48, n 5",0.129 ppm
same,Found ppm,[1]; Day 48,0.131 ppm and 0.127 ppm and 0.128 ppm and 0.164* ppm
same,Mean,"[1]; Day 96, n 4",0.133 ppm
same,Found ppm,[1]; Day 96,0.137 ppm and 0.132 ppm and 0.128 ppm and 0.133 ppm and 0.161* ppm
same,Total microbio counts,[2],1-5 organisms/ml
same,TPC at day zero,[3],less than 7×10^4
same,Streptococcus per 100 mL,"[4]; ClO2 dose 2.7 mg/L, contact time 5 min",8.4 × 10^7 per 100 mL
same,Streptococcus per 100 mL,"[4]; ClO2 dose 2.7 mg/L, contact time 20 min",2.4 × 10^7 per 100 mL
same,Streptococcus per 100 mL,"[4]; ClO2 dose 10.8 mg/L, contact time 5 min",2.7 × 10^5 per 100 mL
same,Streptococcus per 100 mL,"[4]; ClO2 dose 10.8 mg/L, contact time 20 min",8.0 × 10^3 per 100 mL
same,E-Coli Phage,"[5]; pH initial 4.6, final 4.4",0 MPN per 100 ml
same,E-Coli Phage,"[5]; pH initial 5.5, final 5.6",0 MPN per 100 ml
same,E-Coli Phage,"[5]; pH initial 6.5, final 6.7",0 MPN per 100 ml
same,E-Coli Phage,"[5]; pH initial 7.5, final 7.6",0 MPN per 100 ml
same,E-Coli Phage,"[5]; pH initial 8.2, final 8.1",2 MPN per 100 ml
same,E-Coli Phage,"[5]; pH initial 9.1, final 9.2",79 MPN per 100 ml
same,E-Coli Phage,"[5]; pH initial 10.0, final 10.0",79 MPN per 100 ml
same,reduction in titer,[6],> 4 log 10
same,ClO2 residual,"[7]; effluent, ClO2 dose 5.2 mg/L, contact time 3½ hrs",0.4 mg/L as ClO2
same,ClO2 residual,"[7]; effluent, ClO2 dose 5.2 mg/L, contact time 10 min",1.9 mg/L as ClO2
same,ClO2 residual,"[7]; effluent, ClO2 dose 5.2 mg/L, contact time 30 min",1.4 mg/L as ClO2
same,ClO2 residual,"[7]; effluent, ClO2 dose 5.2 mg/L, contact time 1 hr",1.0 mg/L as ClO2
same,ClO2 residual,"[7]; effluent, ClO2 dose 5.2 mg/L, contact time 2 hrs",0.8 mg/L as ClO2
same,ClO2 residual,"[7]; effluent, ClO2 dose 5.2 mg/L, contact time 24 hrs",0 mg/L as ClO2
same,ClO2 residual,"[7]; effluents, ClO2 dose 7.84 mg/L, contact time 10 min",3.0 mg/L as ClO2
same,ClO2 residual,"[7]; effluents, ClO2 dose 7.84 mg/L, contact time 30 min",2.6 mg/L as ClO2
same,ClO2 residual,"[7]; effluents, ClO2 dose 7.84 mg/L, contact time 60 min",2.1 mg/L as ClO2
same,ClO2 residual,"[7]; effluents, ClO2 dose 7.84 mg/L, contact time 1.5 hr",1.9 mg/L as ClO2
same,ClO2 residual,"[7]; effluents, ClO2 dose 7.84 mg/L, contact time 2.5 hr",1.5 mg/L as ClO2
same,ClO2 residual,"[7]; effluents, ClO2 dose 7.84 mg/L, contact time 3.5 hr",1.0 mg/L as ClO2
same,ClO2 residual,"[7]; effluents, dose 19.2 mg/L, 20 minutes, pH initial 4, final 3.4",4.66 mg/L as ClO2
same,ClO2 residual,"[7]; effluents, dose 19.2 mg/L, 20 minutes, pH initial 5, final 4.6",4.37 mg/L as ClO2
same,ClO2 residual,"[7]; effluents, dose 19.2 mg/L, 20 minutes, pH initial 6, final 6.45",4.95 mg/L as ClO2
same,ClO2 residual,"[7]; effluents, dose 19.2 mg/L, 20 minutes, pH initial 7.5, final 7.3",3.84 mg/L as ClO2
same,ClO2 residual,"[7]; effluents, dose 19.2 mg/L, 20 minutes, pH initial 9, final 8.8",1.27 mg/L as ClO2
same,ClO2 residual,"[7]; effluents, dose 19.2 mg/L, 20 minutes, pH initial 10, final 9.9",0.11 mg/L as ClO2
same,ClO2 residual,"[7]; effluents, dose 37.5 mg/L, 20 minutes, pH initial 4.0, final 3.5",25.84 mg/L as ClO2
same,ClO2 residual,"[7]; effluents, dose 37.5 mg/L, 20 minutes, pH initial 5.0, final 4.95",26.88 mg/L as ClO2
same,ClO2 residual,"[7]; effluents, dose 37.5 mg/L, 20 minutes, pH initial 6.0, final 6.05",24.20 mg/L as ClO2
same,ClO2 residual,"[7]; effluents, dose 37.5 mg/L, 20 minutes, pH initial 7.5, final 7.3",25.27 mg/L as ClO2
same,ClO2 residual,"[7]; effluents, dose 37.5 mg/L, 20 minutes, pH initial 9, final 8.8",15.13 mg/L as ClO2
same,ClO2 residual,"[7]; effluents, dose 37.5 mg/L, 20 minutes, pH initial 10, final 9.8",5.23 mg/L as ClO2
same,ClO2 residual,"[7]; tap water with ammonium ion, nitrites, nitrates, neutral pH, dose 19.2 mg/L, 10 min",0 mg/L as ClO2
same,ClO2 residual,"[7]; tap water with ammonium ion, nitrites, nitrates, neutral pH, dose 19.2 mg/L, 30 min",0 mg/L as ClO2
same,ClO2 residual,"[7]; tap water with ammonium ion, nitrites, nitrates, neutral pH, dose 19.2 mg/L, 1 hr",0.07 mg/L as ClO2
same,ClO2 residual,"[7]; tap water with ammonium ion, nitrites, nitrates, neutral pH, dose 19.2 mg/L, 3 hrs",0.03 mg/L as ClO2
same,ClO2 residual,"[7]; tap water with ammonium ion, nitrites, nitrates, neutral pH, dose 19.2 mg/L, 24 hrs",0.08 mg/L as ClO2
same,Residual ClO2,"[7]; dose 2.7 mg/L, contact time 5 min",0 mg/L as ClO2
same,Residual ClO2,"[7]; dose 2.7 mg/L, contact time 20 min",0 mg/L as ClO2
same,Residual ClO2,"[7]; dose 2.7 mg/L, contact time 35 min",0 mg/L as ClO2
same,Residual ClO2,"[7]; dose 7.8 mg/L, contact time 5 min",1.28 mg/L as ClO2
same,Residual ClO2,"[7]; dose 7.8 mg/L, contact time 20 min",1.03 mg/L as ClO2
same,Residual ClO2,"[7]; dose 7.8 mg/L, contact time 35 min",0.84 mg/L as ClO2
same,Residual ClO2,"[7]; dose 10.8 mg/L, contact time 5 min",3.10 mg/L as ClO2
same,Residual ClO2,"[7]; dose 10.8 mg/L, contact time 20 min",2.17 mg/L as ClO2
same,Residual ClO2,"[7]; dose 10.8 mg/L, contact time 35 min",2.07 mg/L as ClO2
same,E. coli on cut lettuce,[8],always zero
